Laboratory results as given in publication PMC5545217 (Nature Communications, 2017).
Read-outs that look alike come from different tables or passages of the source.

Legend:
ATP-PRT [1] = molecular target: T1, ATP-PRT (Mycobacterium tuberculosis, UniProt P9WMN1)
M. tuberculosis ATP-PRT [2] = molecular target: T2, M. tuberculosis ATP-PRT (Mycobacterium tuberculosis, UniProt P9WMN1); assay: biochemical
ATP-PRT [3] = molecular target: T1, ATP-PRT; assay: Competition saturation transfer difference (STD) NMR; type: binding; details: 20 μM ATP-PRT, 400 μM TIH, L-His 0-3000 μM, pH 8.0
Method: NMR spectra were recorded at 25 °C on a Bruker Avance-600 spectrometer equipped with a triple resonance cryo-probe and operating at a ^1H frequency of 600 MHz. […] Spectra with on-resonance pre-saturation of the enzyme at 0.8 ppm were recorded with a saturation time of 2 s. An off-resonance control spectrum was recorded with a saturation time of 2 s. Water suppression was achieved by excitation sculpting. Data processing and spectral subtractions were performed using Bruker TopSpin 3.2 software.

M. tuberculosis ATP-PRT [4] = molecular target: T2, M. tuberculosis ATP-PRT; details: cited from earlier work
crystal structure = molecular target: the molecule itself; assay: crystal structure

Molecule: N[C@@H](Cc1cccs1)C(=O)O [TIH, 3-(2-thienyl)-L-alanine]
- Drift time of main ATP-PRT form (ATP-PRT [1]; pH 6.8, charge state +28): 44.2 ms
- Drift time of main ATP-PRT form (ATP-PRT [1]; pH 9.0, charge state +28): 44.1 ms
- ATP-PRT activity restored (M. tuberculosis ATP-PRT [2]; 400 µM L-His plus close to 4 mM TIH): 100%
- V max (M. tuberculosis ATP-PRT [2]; [TIH] 0.25 mM, L-His inhibition pattern, varying ATP): 0.28 ± 0.01 s⁻¹
- V max (M. tuberculosis ATP-PRT [2]; [TIH] 0.8 mM, L-His inhibition pattern, varying ATP): 0.38 ± 0.01 s⁻¹
- V max (M. tuberculosis ATP-PRT [2]; [TIH] 4 mM, L-His inhibition pattern, varying ATP): 0.76 ± 0.01 s⁻¹
- Emax (M. tuberculosis ATP-PRT [2]; read-out: ATP-PRT activity increased up to (maximal activation)): ≤ 433%
- αATP (M. tuberculosis ATP-PRT [2]; varying ATP, Eq. 4): 1.4 ± 0.2
- βATP (M. tuberculosis ATP-PRT [2]; varying ATP, Eq. 4): 4.9 ± 0.2
- α (PRPP) (M. tuberculosis ATP-PRT [2]; varying PRPP, Eq. 4): 1.1 ± 0.4
- β (PRPP) (M. tuberculosis ATP-PRT [2]; varying PRPP, Eq. 4): 4.9 ± 0.5

Molecule: Nc1ncnc2c1ncn2[C@@H]1O[C@H](COP(=O)(O)OP(=O)(O)OP(=O)(O)O)[C@@H](O)[C@H]1O [ATP]
- K m,ATP (M. tuberculosis ATP-PRT [2]; [TIH] 0 mM, L-His inhibition pattern): 230 ± 30 µM
- K m,ATP (M. tuberculosis ATP-PRT [2]; [TIH] 0.25 mM, L-His inhibition pattern): 200 ± 20 µM
- K m,ATP (M. tuberculosis ATP-PRT [2]; [TIH] 0.8 mM, L-His inhibition pattern): 180 ± 20 µM
- K m,ATP (M. tuberculosis ATP-PRT [2]; [TIH] 4 mM, L-His inhibition pattern): 160 ± 20 µM
- K m,ATP (M. tuberculosis ATP-PRT [2]; activation experiment, unactivated reaction, varying ATP): 100 ± 10 µM

Molecule: N[C@@H](Cc1c[nH]cn1)C(=O)O [L-His, L-histidine, reference compound]
- Drift time of main ATP-PRT form (ATP-PRT [1]; pH 6.8, charge state +28): 44.1 ms
- Drift time of main ATP-PRT form (ATP-PRT [1]; pH 9.0, charge state +28): 44.2 ms
- IC50 (M. tuberculosis ATP-PRT [2]): 22 ± 4 µM
- ATP-PRT activity at saturating L-His (M. tuberculosis ATP-PRT [2]; 400 µM L-His (20-fold K i)): fully inhibited
- Ki (M. tuberculosis ATP-PRT [2]; L-His inhibition vs ATP, [TIH] 0 mM, read-out: K i,ATP): 20 ± 1 µM
- Ki (M. tuberculosis ATP-PRT [2]; linear noncompetitive inhibition vs. PRPP, no TIH, read-out: K i,PRPP): 16 ± 1 µM
- Competition STD NMR outcome (ATP-PRT [3]): displacement of TIH by L-His
- Hill number (n H) for L-His inhibition (M. tuberculosis ATP-PRT [4]): 1.5

Molecule: O=P(O)(O)OC[C@H]1O[C@H](OP(=O)(O)OP(=O)(O)O)[C@H](O)[C@@H]1O [PRPP, 5-phospho-α-D-ribose 1-diphosphate]
- K m,PRPP (M. tuberculosis ATP-PRT [2]; activation experiment, unactivated reaction, varying PRPP): 190 ± 30 µM

B1: Mycobacterium tuberculosis ATP-phosphoribosyltransferase (enzyme)
chain: MLRVAVPNKGALSEPATEILAEAGYRRRTDSKDLTVIDPVNNVEFFFLRPKDIAIYVGSGELDFGITGRDLVCDSGAQVRERLALGFGSSSFRYAAPAGRNWTTADLAGMRIATAYPNLVRKDLATKGIEATVIRLDGAVEISVQLGVADAIADVVGSGRTLSQHDLVAFGEPLCDSEAVLIERAGTDGQDQTEARDQLVARVQGVVFGQQYLMLDYDCPRSALKKATAITPGLESPTIAPLADPDWVAIRALVPRRDVNGIMDELAAIGAKAILASDIRFCRF
notes: also called ATP-PRT; HisG
- stoichiometry N (crystal structure): 6
